Assay results reported in patent publication US20190315814A1, “LANTIBIOTIC VARIANTS AND USES THEREOF” (priority 2016, published 2019).
≈ marks a conversion by molar mass, not a printed value. Read-outs that look alike come from different tables or passages of the source. Where a SMILES comes first, the peptide text is derived from it.

Assays:
[1] = tested on: VRE Enterococcus faecalis; conditions: VRE
[2] = tested on: Eggerthella lenta (ATCC 27337)
[3] = tested on: Clostridium scindens (ATCC 35704)
[4] = tested on: Lactobacillus acidophilus (CCUG 4356)
[5] = simulated gi fluid
[6] = tested on: Peptostreptococcus anaerobius (ATCC 27337)
in vitro = test: in vitro
Experimental: Assay incubation conditions included […] simulated gastric fluid (SGF, USP 39 Test Solution; 2 g/L NaCl, 7 mL/L glacial HCl, pH 1.4) containing 1.75 mg/mL Pepsin (3200-4500 U/mg) mixed with 7.5 μL of 10 mg/mL variant (or positive control, NH2-Met-Arg-Phe-Ala-OH, MRFA, CAS#67368-29-0) for a final concentration of 300 μg/ml variant in a microfuge tube. Samples were incubated at 37° C. and analyzed using HPLC or LC-MS for loss of substrate. The percent remaining, elimination rate constant (Ke), and in vitro protein half-lives were calculated. A control of SGF without enzyme was also run and analyzed in the same manner for each variant.

[7] = FaSSIF + 1% pancreatin + 3 μg/ml trypsin + 3 μg/ml chymotrypsin half-life

Row | MIC to H. Pylori without EDTA (Heliobacter pylori; without EDTA) | SMILES | MIC VRE ATCC 51575 [1] | MIC VRE CCUG 47775 [1] | MIC E. lenta [2] | MIC VRE ATCC 700221 (VRE Enterococcus faecium) | MIC C. scindens [3] | MIC L. acidophilus [4] | half-life [5, 7] | half-life ([5]; FaSSIF only half-life) | MIC P. anaerobius [6] | MIC to H. Pylori without EDTA (Heliobacter pylori) | MIC to H. Pylori with 0.05M EDTA (Heliobacter pylori) | half-life (in vitro; simulated gi fluid) | half-life at 300 μg/ml (in vitro; simulated gastric fluid without enzyme, pH 1.4)
1 | – | C=C1NC(=O)[C@H](Cc2c[nH]c3ccccc23)NC(=O)[C@H](NC(=O)[C@H](CCCCN)NC(=O)[C@H](C)N)CSC[C@@H](C(=O)N[C@H]2C(=O)N3CCC[C@H]3C(=O)NCC(=O)N[C@H](C(=O)N[C@@H](C)C(=O)N[C@@H](C)C(=O)NC(=CC)C(=O)NCC(=O)N[C@@H]3CSC[C@@H]4NC(=O)[C@H](Cc5ccc(O)cc5)NC(=O)[C@@H](CS/C=C\NC4=O)NC(=O)[C@H](CC(N)=O)NC(=O)[C@H](Cc4ccccc4)NC3=O)CS[C@H]2C)NC(=O)[C@H](CC(C)C)NC1=O [F1A R13A] | 32 µg/mL (≈ 15.2 µM) | 32 µg/mL (≈ 15.2 µM) | 4 µg/mL (≈ 1.9 µM) | 16 µg/mL (≈ 7.61 µM) | 16 µg/mL (≈ 7.61 µM) | 8 µg/mL (≈ 3.8 µM) | 130 min | > 720 min | 2 µg/mL (≈ 0.951 µM) | >64 µg/mL | 64 µg/mL | – | –
2 | – | C=C1NC(=O)[C@H](Cc2c[nH]c3ccccc23)NC(=O)[C@H](NC(=O)[C@H](CCCCN)NC(=O)[C@H](C)N)CSC[C@@H](C(=O)N[C@H]2C(=O)N3CCC[C@H]3C(=O)NCC(=O)N[C@H](C(=O)N[C@@H](C)C(=O)NCC(=O)NC(=CC)C(=O)NCC(=O)N[C@@H]3CSC[C@@H]4NC(=O)[C@H](Cc5ccc(O)cc5)NC(=O)[C@@H](CS/C=C\NC4=O)NC(=O)[C@H](CC(N)=O)NC(=O)[C@H](Cc4ccccc4)NC3=O)CS[C@H]2C)NC(=O)[C@H](CC(C)C)NC1=O [F1A R13G] | >64 µg/mL | >64 µg/mL | 16 µg/mL (≈ 7.66 µM) | 32 µg/mL (≈ 15.3 µM) | 32 µg/mL (≈ 15.3 µM) | 16 µg/mL (≈ 7.66 µM) | 124 min | 299 min | 4 µg/mL (≈ 1.91 µM) | >64 µg/mL | >64 µg/mL | – | –
3 | – | C=C1NC(=O)[C@H](Cc2c[nH]c3ccccc23)NC(=O)[C@H](NC(=O)[C@H](CCCCN)NC(=O)CN)CSC[C@@H](C(=O)N[C@H]2C(=O)N3CCC[C@H]3C(=O)NCC(=O)N[C@H](C(=O)N[C@@H](C)C(=O)N[C@@H](CC(N)=O)C(=O)NC(=CC)C(=O)NCC(=O)N[C@@H]3CSC[C@@H]4NC(=O)[C@H](Cc5ccc(O)cc5)NC(=O)[C@@H](CS/C=C\NC4=O)NC(=O)[C@H](CC(N)=O)NC(=O)[C@H](Cc4ccccc4)NC3=O)CS[C@H]2C)NC(=O)[C@H](CC(C)C)NC1=O [F1G R13N] | >64 µg/mL | >64 µg/mL | 16 µg/mL (≈ 7.5 µM) | 32 µg/mL (≈ 15 µM) | 16 µg/mL (≈ 7.5 µM) | 8 µg/mL (≈ 3.75 µM) | 225 min | > 720 min | 4 µg/mL (≈ 1.88 µM) | >64 µg/mL | >64 µg/mL | – | –
4 | – | C=C1NC(=O)[C@H](Cc2c[nH]c3ccccc23)NC(=O)[C@H](NC(=O)[C@H](CCCCN)NC(=O)[C@@H](N)[C@@H](C)CC)CSC[C@@H](C(=O)N[C@H]2C(=O)N3CCC[C@H]3C(=O)NCC(=O)N[C@H](C(=O)N[C@@H](C)C(=O)N[C@@H](CC(N)=O)C(=O)NC(=CC)C(=O)N[C@@H](C)C(=O)N[C@@H]3CSC[C@@H]4NC(=O)[C@H](Cc5ccc(O)cc5)NC(=O)[C@@H](CS/C=C\NC4=O)NC(=O)[C@H](CC(N)=O)NC(=O)[C@H](Cc4ccccc4)NC3=O)CS[C@H]2C)NC(=O)[C@H](CC(C)C)NC1=O [F1I R13N G15A] | 32 µg/mL (≈ 14.5 µM) | >64 µg/mL | 8 µg/mL (≈ 3.63 µM) | 32 µg/mL (≈ 14.5 µM) | 16 µg/mL (≈ 7.26 µM) | 8 µg/mL (≈ 3.63 µM) | > 720 min | > 720 min | 4 µg/mL (≈ 1.82 µM) | >64 µg/mL | 64 µg/mL | – | –
5 | – | C=C1NC(=O)[C@H](CCSC)NC(=O)[C@H](NC(=O)[C@H](CCCCN)NC(=O)[C@@H](N)[C@@H](C)CC)CSC[C@@H](C(=O)N[C@H]2C(=O)N3CCC[C@H]3C(=O)NCC(=O)N[C@H](C(=O)N[C@@H](C)C(=O)N[C@@H](C)C(=O)NC(=CC)C(=O)NCC(=O)N[C@@H]3CSC[C@@H]4NC(=O)[C@H](Cc5ccc(O)cc5)NC(=O)[C@@H](CS/C=C\NC4=O)NC(=O)[C@H](CC(N)=O)NC(=O)[C@H](Cc4ccccc4)NC3=O)CS[C@H]2C)NC(=O)[C@H](CC(C)C)NC1=O [F1I W4M R13A] | >64 µg/mL | >64 µg/mL | 16 µg/mL (≈ 7.65 µM) | >64 µg/mL | 32 µg/mL (≈ 15.3 µM) | 32 µg/mL (≈ 15.3 µM) | 349 min | > 720 min | 8 µg/mL (≈ 3.83 µM) | 64 µg/mL (≈ 30.6 µM) | 64 µg/mL | – | –
6 | – | C=C1NC(=O)[C@H](Cc2c[nH]c3ccccc23)NC(=O)[C@H](NC(=O)[C@H](CCCCN)NC(=O)[C@@H](N)CC(C)C)CSC[C@@H](C(=O)N[C@H]2C(=O)N3CCC[C@H]3C(=O)NCC(=O)N[C@H](C(=O)N[C@@H](C)C(=O)N[C@@H](CC(=O)O)C(=O)NC(=CC)C(=O)NCC(=O)N[C@@H]3CSC[C@@H]4NC(=O)[C@H](Cc5ccc(O)cc5)NC(=O)[C@@H](CS/C=C\NC4=O)NC(=O)[C@H](CC(N)=O)NC(=O)[C@H](Cc4ccccc4)NC3=O)CS[C@H]2C)NC(=O)[C@H](CC(C)C)NC1=O [F1L R13D] | 64 µg/mL (≈ 29.2 µM) | 32 µg/mL (≈ 14.6 µM) | 1 µg/mL (≈ 0.457 µM) | 32 µg/mL (≈ 14.6 µM) | 8 µg/mL (≈ 3.65 µM) | 8 µg/mL (≈ 3.65 µM) | > 720 min | > 720 min | 2 µg/mL (≈ 0.913 µM) | 8 µg/mL (≈ 3.65 µM) | 4 µg/mL | > 1440 min | –
7 | – | C=C1NC(=O)[C@H](Cc2c[nH]c3ccccc23)NC(=O)[C@H](NC(=O)[C@H](CCCCN)NC(=O)[C@@H](N)CO)CSC[C@@H](C(=O)N[C@H]2C(=O)N3CCC[C@H]3C(=O)NCC(=O)N[C@H](C(=O)N[C@@H](C)C(=O)N[C@@H](CC(N)=O)C(=O)NC(=CC)C(=O)NCC(=O)N[C@@H]3CSC[C@@H]4NC(=O)[C@H](Cc5ccc(O)cc5)NC(=O)[C@@H](CS/C=C\NC4=O)NC(=O)[C@H](CC(N)=O)NC(=O)[C@H](Cc4ccccc4)NC3=O)CS[C@H]2C)NC(=O)[C@H](CC(C)C)NC1=O [F1S R13N] | >64 µg/mL | >64 µg/mL | 16 µg/mL (≈ 7.4 µM) | 64 µg/mL (≈ 29.6 µM) | 32 µg/mL (≈ 14.8 µM) | 16 µg/mL (≈ 7.4 µM) | > 720 min | > 720 min | 8 µg/mL (≈ 3.7 µM) | >64 µg/mL | >64 µg/mL | – | –
8 | – | C=C1NC(=O)[C@H](Cc2c[nH]c3ccccc23)NC(=O)[C@H](NC(=O)[C@H](CCCCN)NC(=O)[C@@H](N)[C@@H](C)O)CSC[C@@H](C(=O)N[C@H]2C(=O)N3CCC[C@H]3C(=O)NCC(=O)N[C@H](C(=O)N[C@@H](C)C(=O)NCC(=O)NC(=CC)C(=O)NCC(=O)N[C@@H]3CSC[C@@H]4NC(=O)[C@H](Cc5ccc(O)cc5)NC(=O)[C@@H](CS/C=C\NC4=O)NC(=O)[C@H](CC(N)=O)NC(=O)[C@H](Cc4ccccc4)NC3=O)CS[C@H]2C)NC(=O)[C@H](CC(C)C)NC1=O [F1T R13G] | 64 µg/mL (≈ 30.2 µM) | 64 µg/mL (≈ 30.2 µM) | 8 µg/mL (≈ 3.77 µM) | 32 µg/mL (≈ 15.1 µM) | 64 µg/mL (≈ 30.2 µM) | 8 µg/mL (≈ 3.77 µM) | 114 min | > 720 min | 8 µg/mL (≈ 3.77 µM) | >64 µg/mL | >64 µg/mL | – | –
9 | – | CSCC[C@H](N)C(=O)N[C@@H](CCCNC(=N)N)C(=O)N[C@@H](Cc1ccccc1)C(=O)N[C@@H](C)C(=O)O [Positive Control, NH2-Met-Arg-Phe-Ala-OH, reference compound] (H-MRFA-OH) | – | – | – | – | – | – | – | – | – | – | – | – | > 1440 min
10 | 0.5 µg/mL (≈ 1.13 µM) | CN(C)[C@@H]1C(O)=C(C(N)=O)C(=O)[C@@]2(O)C(O)=C3C(=O)c4c(O)cccc4[C@@](C)(O)[C@H]3C[C@@H]12 [Tetracycline, reference compound] | – | – | – | – | – | – | – | – | – | – | 0.25 µg/mL | – | –
